Experimental data reported in patent US20260272878A1, “ADAR1 INHIBITORS AND USES THEREOF” (THE WISTAR INSTITUTE OF ANATOMY AND BIOLOGY, priority 2023, published 2026).
“Also recorded” adds a separate entry of the source. Like-named read-outs stand apart in the source and are kept apart here.

Assays:
GAPDH = GAPDH (Homo sapiens, UniProt P04406); assay: SPR binding to negative control protein GAPDH
Excerpt: (§1) FIGS. 5A-5D show Biacore SPR analysis for binding of ADAR1i to ADAR1p110. (FIG. 5A) SPR analysis for binding kinetics of 8 compounds to ADAR1p110-WT. ADAR1 inhibition positive (ADAR1i-13, ADAR1i-120, ADAR1i-124) and negative compounds. (FIG. 5B, FIG. 5C) […] of SPR analysis for binding of ADAR1i-13 and ADAR1i-124 to ADAR1p110-WT and ADAR1p110-E912A as well as negative control proteins, GAPDH and HuR, are shown. […] ADAR1-E912, equivalent of ADAR2 E396, is located in the catalytic center.

ADAR1p110-E912A = ADAR1p110-E912A (Homo sapiens, UniProt P55265, E912A); assay: Biacore SPR binding to ADAR1p110-E912A mutant
Excerpt: as §1
No complete 3-D structure of ADAR1 is currently available. […] The glutamate E912 and E396 in ADAR1 and ADAR2, respectively, plays an important proton transfer function during hydrolytic deamination reaction (42, 43).

HuR = HuR (Homo sapiens, UniProt Q15717); assay: SPR binding to negative control protein HuR
Excerpt: as §1

[1] = Half-life in culture media by loss of cancer cell killing activity; format: in vitro ADME; conditions: determined by loss of cancer cell killing activity (data not shown), read-out: t1/2 in the culture media (converted)
Excerpt: We will modify ADAR1i-124 and derive ADAR1i-124 analogs with higher potency (higher affinity binding and lower IC50) ready to be tested for animal model studies (next section).

HSG2 = assay: Dose-dependent killing, HSG2; format: cell-based; conditions: mouse non-ALT cancer cells
Procedure: (§2) FIGS. 9A-9C show dose-dependent killing of cancer cells and activation of IFN signaling. […] YUMM1.7 (FIG. 9B) and HGS2 cells (FIG. 9C) were treated with ADAR1i-124 at 10 μM (12 hrs). RNA samples were analyzed by qRT-PCR to monitor ISG expression levels. Data: mean±SD (n=3). Significant differences were identified by two-tailed Student's t-tests: ***P<0.001.

[2] = system: WM3000 PDX melanoma cell line; assay: Dose-dependent killing, WM3000; format: cell-based; conditions: human PDX melanoma cell line
Procedure: as §2
Treatments and analysis. The efficacy of ADAR1i alone or combining with αPD1 Ab for suppression of tumor growth will be assessed as described in the previous section (Aim 2-1). We have at our disposal the largest collection (>500) of clinically and genetically annotated melanoma PDX. […] We will use the human melanoma cell lines/PDXs in subcutaneous tumor assays in the hu-BLT mice. Human melanomas will be established in the hu-BLT mice and randomized into 4 treatment groups (n=5 per group): 1) ADAR1i alone, 2) αPD-1 Ab alone, 3) combination ADAR1i/αPD-1, 4) control IgG. Tumor volumes and overall survival will be determined as described in the previous section (Aim 2-1). Tumors will be biopsied and blood collected at interval periods (at EOT, e.g. 7 days, at TTR, and at EOS) and analyzed for hallmark melanoma features as above. […]

[3] = system: mouse melanoma and ovarian cancer cells; assay: Killing of mouse melanoma and ovarian cancer cells (FIG. 10C); format: cell-based
Excerpt: (§3) FIGS. 10A-10C show ADAR1i-124 kills cancer cells via different cell death mechanism. (FIG. 10A) Differential expression of ADAR1p150 and ADAR1p110 in cancer cells. […] Annexin V and pMLKL were used as apoptosis and necroptosis markers, respectively. At least 200 cells were examined. Data: mean±SD (n=3). Significant differences were identified by two tailed Student's t-tests: *P<0.05, n.s., not significant. […] We plan to evaluate ADAR1 inhibitors in vivo in mouse tumor model systems by using these mouse cancer cell lines.

mouse melanoma = assay: Subcutaneous mouse melanoma growth in B6 black mice; format: in vivo; conditions: 4 treatments starting at Day 8, versus vehicle
Excerpt: We inoculated mouse melanoma cells subcutaneously in B6 black mice. Then, starting at Day 8, we treated mice for 4 treatments of either vehicle only or ADAR1i-124 (FIG. 11A).

HGS2 cells = assay: qRT-PCR of ISG expression (IFN signaling), HGS2; format: cell-based, mouse; conditions: HGS2, 10 μM, 12 hrs
Procedure: as §2

YUMM1.7 cells [4] = assay: Cell death mechanism, pMLKL necroptosis marker, YUMM1.7; format: cell-based, mouse; conditions: YUMM1.7, pMLKL marker
Excerpt: as §3
(§4) Thus, ADAR1i-124 has the potential to act as a “two birds with one stone” cancer therapeutic.

YUMM1.7 = assay: Dose-dependent killing, YUMM1.7; format: cell-based; conditions: mouse non-ALT cancer cells
Procedure: as §2

[5] = mouse, in vivo, ip
YUMM1.7 cells [6] = assay: qRT-PCR of ISG expression (IFN signaling), YUMM1.7; format: cell-based, mouse; conditions: YUMM1.7, 10 μM, 12 hrs
Procedure: as §2
(§5) Dose-dependent selective killing of telomerase reactivated cancer cells was determined (FIG. 9A).

[7] = system: human and mouse melanoma (telomerase reactivated) cell lines; assay: Suppression of melanoma cell lines, comparison of inhibitors (not shown); format: cell-based
Procedure: as §5

HeLa cells = assay: Cell death mechanism, Annexin V apoptosis marker, HeLa; format: cell-based, human
Excerpt: as §3, §4

ALT U2OS cells = assay: Cell killing / viability, U2OS; format: cell-based
Procedure: FIGS. 8A-8C show analysis of ADAR1i-124 effects in cancer cells. […] Viability was examined using the Apo Tox-Glo assay system. Control, 0.3% DMSO. Data: mean±SD (n=3). Significant differences identified by two-tailed Student's t-tests: *P<0.05, n.s., not significant. (FIG. 8B) Western blotting analysis of HeLa cells treated with ADAR1i-124 (10 μM).
as §2, §5

Z-RNA = Z-RNA formation; format: cell-based
Excerpt: FIGS. 7A-7C show analysis of ADAR1i-13 and analogs. […] IC50 values determined by dose-dependent in vitro editing assay are shown for ADAR1 inhibition positive compounds. […] Dumbbell-shaped dsRNA has been reported to form Z-RNA conformation and act as a strong IFN signaling activation triggers. ADAR1p150 mediated A-to-I editing suppresses Z-RNA structure transition and activation of IFN signaling.

Chain of ADAR1p110-E912A (P55265 296-1226 E912A): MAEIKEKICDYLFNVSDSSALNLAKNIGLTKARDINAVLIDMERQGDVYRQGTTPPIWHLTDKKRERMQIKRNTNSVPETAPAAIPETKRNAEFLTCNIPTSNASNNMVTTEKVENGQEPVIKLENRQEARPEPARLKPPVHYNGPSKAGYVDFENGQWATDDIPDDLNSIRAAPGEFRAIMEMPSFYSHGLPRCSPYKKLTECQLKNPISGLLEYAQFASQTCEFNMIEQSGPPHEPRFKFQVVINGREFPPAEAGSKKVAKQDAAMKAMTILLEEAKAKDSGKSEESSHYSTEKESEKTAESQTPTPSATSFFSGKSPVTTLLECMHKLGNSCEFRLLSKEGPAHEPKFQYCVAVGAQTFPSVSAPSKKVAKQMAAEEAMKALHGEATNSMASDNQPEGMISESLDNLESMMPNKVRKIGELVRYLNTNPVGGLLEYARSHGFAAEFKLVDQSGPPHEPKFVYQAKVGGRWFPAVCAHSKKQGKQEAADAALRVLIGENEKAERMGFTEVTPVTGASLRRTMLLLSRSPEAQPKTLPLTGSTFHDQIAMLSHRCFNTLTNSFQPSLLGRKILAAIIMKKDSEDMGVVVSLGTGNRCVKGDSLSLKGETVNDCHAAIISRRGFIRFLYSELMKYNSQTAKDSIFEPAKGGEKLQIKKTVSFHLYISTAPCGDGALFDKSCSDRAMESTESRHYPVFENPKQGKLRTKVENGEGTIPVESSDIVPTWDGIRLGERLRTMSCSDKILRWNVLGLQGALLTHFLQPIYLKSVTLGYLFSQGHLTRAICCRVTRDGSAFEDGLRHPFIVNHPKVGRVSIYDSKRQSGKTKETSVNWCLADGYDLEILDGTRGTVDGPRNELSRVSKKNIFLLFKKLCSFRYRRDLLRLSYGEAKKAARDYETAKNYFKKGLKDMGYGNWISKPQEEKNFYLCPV
Chain of GAPDH (P04406 whole entry, species assumed): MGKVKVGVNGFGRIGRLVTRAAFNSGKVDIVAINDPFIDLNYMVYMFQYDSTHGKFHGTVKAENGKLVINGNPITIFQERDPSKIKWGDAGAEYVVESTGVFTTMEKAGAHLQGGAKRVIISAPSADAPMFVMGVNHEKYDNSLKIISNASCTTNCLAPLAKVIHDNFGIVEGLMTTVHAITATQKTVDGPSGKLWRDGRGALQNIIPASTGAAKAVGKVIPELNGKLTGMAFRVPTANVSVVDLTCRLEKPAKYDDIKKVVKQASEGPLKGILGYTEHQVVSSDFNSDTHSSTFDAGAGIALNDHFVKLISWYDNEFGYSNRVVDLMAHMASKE
Chain of HuR (Q15717 whole entry, species assumed): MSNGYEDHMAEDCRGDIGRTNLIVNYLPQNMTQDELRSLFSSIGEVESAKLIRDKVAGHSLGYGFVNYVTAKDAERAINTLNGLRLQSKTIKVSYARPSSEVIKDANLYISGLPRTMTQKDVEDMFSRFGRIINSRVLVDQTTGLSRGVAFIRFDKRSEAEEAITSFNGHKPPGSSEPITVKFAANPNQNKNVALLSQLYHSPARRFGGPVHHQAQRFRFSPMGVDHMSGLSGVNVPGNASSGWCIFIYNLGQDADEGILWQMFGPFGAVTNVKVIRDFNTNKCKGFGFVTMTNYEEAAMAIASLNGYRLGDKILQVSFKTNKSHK

Compound | Binding to GAPDH (GAPDH) | Binding to ADAR1p110-E912A mutant (ADAR1p110-E912A) | Binding to HuR (HuR) | half-life [1] | Killing of HSG2 cells (HSG2) | Killing of WM3000 cells [2] | Killing of mouse melanoma and ovarian cancer cells [3] | Growth of mouse melanomas in vivo (mouse melanoma) | ISG expression / IFN signaling activation (HGS2 cells) | Induction of necroptosis (YUMM1.7 cells [4]) | Killing of YUMM1.7 cells (YUMM1.7) | Well tolerated dose [5] | Well tolerated dose ([5]; 5 days) | ISG expression / IFN signaling activation (YUMM1.7 cells [6]) | Suppression of human and mouse melanoma cell lines relative to other inhibitors [7] | Induction of apoptosis (HeLa cells) | Killing of U2OS cells (ALT U2OS cells) | Z-RNA formation (Z-RNA)
N#Cc1ccc(NC(=O)c2sc3ccccc3c2Cl)cc1 [ADAR1i-13, 3-chloro-N-(4-cyanophenyl)-1-benzothiophene-2-carboxamide] | did not bind | did not bind | did not bind | – | – | – | – | – | – | – | – | – | – | – | – | – | – | –
N#Cc1ccc(NC(=O)c2c(Cl)c3ccccc3n2CO)cc1 [ADAR1i-124] | did not bind | a binding kinetics different from that with ADAR1p110-WT | did not bind | ~12 h | dose-dependently killed | killed one PDX melanoma cell line, WM3000, in a dose-dependent manner; also recorded: dose-dependently killed | dose-dependently and efficiently killed | significantly suppressed growth of mouse melanomas | Activation of the IFN signaling | induced necroptosis; also recorded: killed via necroptosis | dose-dependently killed | up to 50 mg/kg | up to 50 mg/kg | upregulated expression of interferon stimulated genes (ISGs) including MDA5, CXCL9, and CXCL10; also recorded: upregulated expression of known ISGs; also recorded: activated type I IFN signaling; also recorded: Activation of the IFN signaling | more efficiently than ADAR1i-13 and ADAR1i-120 | induced apoptosis; also recorded: killed via apoptosis | unaffected | induces formation of Z-RNAs
